The test deals with GST-Bcl-2 (Homo sapiens (Human), UniProt P10415). As to the kind of experiment: Time Resolved-Fluorescence Resonance Energy Transfer (TR-FRET) Bcl-2 binding assay. The method, boiled down: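 Ki values derived from TR-FRET displacement of F-Bak peptide from GST-Bcl-2, detected with Tb-labelled anti-GST antibody (ex 340, em 520/495 nm). Compound dilution series started at 50 μM (2× starting concentration); room-temperature incubation 3 hours.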
Background: TR-FRET usually uses a lanthanide donor and a delayed reading to cut background.

Setting [1] is: GST-Bcl-2 1 nM, F-Bak peptide probe 100 nM, Tb-anti-GST antibody 1 nM, Ki by Wang's equation.

Broadly, the Ki is the equilibrium dissociation constant of an inhibitor or competing ligand from its target.

Where two headings read alike, the source gives them in different places.

Sequence of GST-Bcl-2 (P10415 whole entry): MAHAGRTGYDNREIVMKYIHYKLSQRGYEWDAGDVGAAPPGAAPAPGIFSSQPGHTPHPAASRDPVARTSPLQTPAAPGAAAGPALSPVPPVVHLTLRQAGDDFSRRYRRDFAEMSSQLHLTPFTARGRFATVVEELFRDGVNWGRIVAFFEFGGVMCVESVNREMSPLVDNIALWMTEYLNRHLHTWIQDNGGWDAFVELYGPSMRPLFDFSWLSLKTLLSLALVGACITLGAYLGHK

Turning to `CN1CC[C@@H](Nc2ccc(S(=O)(=O)NC(=O)c3ccc(N4CCN(CC5=C(c6ccc(Cl)cc6)CC(C)(C)CC5)CC4)cc3Oc3cccc(Cl)c3)cc2[N+](=O)[O-])C1` [Example 195, 2-(3-chlorophenoxy)-4-(4-{[2-(4-chlorophenyl)-4,4-dimethylcyclohex-1-en-1-yl]methyl}piperazin-1-yl)-N-[(4-{[(3R)-1-methylpyrrolidin-3-yl]amino}-3-nitrophenyl)sulfonyl]benzamide], the affinity under setting [1], expressed as Ki, was 0.684 nM. Regarding `CC1(C)CCC(CN2CCN(c3ccc(C(=O)NS(=O)(=O)c4ccc(NC5CCN(C6CCOCC6)CC5)c([N+](=O)[O-])c4)c(Oc4ccc5[nH]cc(Cl)c5c4)c3)CC2)=C(c2ccc(Cl)cc2)C1` [Example 281, 2-[(3-chloro-1H-indol-5-yl)oxy]-4-(4-{[2-(4-chlorophenyl)-4,4-dimethylcyclohex-1-en-1-yl]methyl}piperazin-1-yl)-N-({3-nitro-4-[(1-tetrahydro-2H-pyran-4-ylpiperidin-4-yl)amino]phenyl}sulfonyl)benzamide], the Ki under setting [1] amounted to 0.111 nM. With `O=C(NS(=O)(=O)c1ccc(NCC2CCOCC2)c([N+](=O)[O-])c1)c1ccc(N2CCN(Cc3ccccc3-c3ccc(Cl)cc3)CC2)cc1Oc1ccccc1-c1ccccc1` [Example 84, 2-(1,1′-biphenyl-2-yloxy)-4-(4-((4′-chloro-1,1′-biphenyl-2-yl)methyl)piperazin-1-yl)-N-((3-nitro-4-((tetrahydro-2H-pyran-4-ylmethyl)amino)phenyl)sulfonyl)benzamide], under setting [1], affinity was put at a Ki of 13.7 nM. `Cc1nc(C)c(-c2cccc(Oc3cc(N4CCN(Cc5ccccc5-c5ccc(Cl)cc5)CC4)ccc3C(=O)NS(=O)(=O)c3ccc(NCCCN4CCOCC4)c([N+](=O)[O-])c3)c2)s1` [Example 33, 4-(4-((4′-chloro-1,1′-biphenyl-2-yl)methyl)piperazin-1-yl)-2-(3-(2,4-dimethyl-1,3-thiazol-5-yl)phenoxy)-N-((4-((3-morpholin-4-ylpropyl)amino)-3-nitrophenyl)sulfonyl)benzamide] came in with a Ki under setting [1] of 7.17 nM. On the same count and under the same terms, with `CN1CCC(Nc2ccc(S(=O)(=O)NC(=O)c3ccc(N4CCN(CC5=C(c6ccc(Cl)cc6)CC(C)(C)CC5)CC4)cc3Oc3ccc(F)cc3)cc2[N+](=O)[O-])CC1` [Example 118, 4-(4-{[2-(4-chlorophenyl)-4,4-dimethylcyclohex-1-en-1-yl]methyl}piperazin-1-yl)-2-(4-fluorophenoxy)-N-({4-[(1-methylpiperidin-4-yl)amino]-3-nitrophenyl}sulfonyl)benzamide] the figure was 0.151 nM. Regarding `CC1(C)CCC(CN2CCN(c3ccc(C(=O)NS(=O)(=O)c4ccc(N[C@H]5CC[C@H](N(C6CC6)C6CC6)CC5)c([N+](=O)[O-])c4)c(Oc4cc5cc[nH]c5cc4F)c3)CC2)=C(c2ccc(Cl)cc2)C1` [Example 334, Trans-4-(4-{[2-(4-chlorophenyl)-4,4-dimethylcyclohex-1-en-1-yl]methyl}piperazin-1-yl)-N-[(4-{[4-(dicyclopropylamino)cyclohexyl]amino}-3-nitrophenyl)sulfonyl]-2-[(6-fluoro-1H-indol-5-yl)oxy]benzamide], the affinity corresponds to a Ki of 0.197 nM.

In the case of `CC1(C)CCC(CN2CCN(c3ccc(C(=O)NS(=O)(=O)c4ccc(NC5CCN(C6CCOCC6)CC5)c([N+](=O)[O-])c4)c(Oc4ccccc4F)c3)CC2)=C(c2ccc(Cl)cc2)C1` [Example 124, 4-(4-{[2-(4-chlorophenyl)-4,4-dimethylcyclohex-1-en-1-yl]methyl}piperazin-1-yl)-2-(2-fluorophenoxy)-N-({3-nitro-4-[(1-tetrahydro-2H-pyran-4-ylpiperidin-4-yl)amino]phenyl}sulfonyl)benzamide], the inhibitory constant (Ki) under setting [1] worked out at 0.033 nM. The molecule `CN1CCC(Nc2ccc(S(=O)(=O)NC(=O)c3ccc(N4CCN(CC5=C(c6ccc(Cl)cc6)CC(C)(C)CC5)CC4)cc3Oc3cnc(N)c(Cl)c3)cc2S(=O)(=O)C(F)(F)F)CC1` [Example 354, 2-[(6-amino-5-chloropyridin-3-yl)oxy]-4-(4-{[2-(4-chlorophenyl)-4,4-dimethylcyclohex-1-en-1-yl]methyl}piperazin-1-yl)-N-({4-[(1-methylpiperidin-4-yl)amino]-3-[(trifluoromethyl)sulfonyl]phenyl}sulfonyl)benzamide] showed a Ki under setting [1] of 0.114 nM. Consider `CN1CCC(Nc2ccc(S(=O)(=O)NC(=O)c3ccc(N4CCN(CC5=C(c6ccc(Cl)cc6)CC(C)(C)CC5)CC4)cc3Oc3ccc4[nH]ccc4c3F)cc2[N+](=O)[O-])CC1` [Example 157, 4-(4-{[2-(4-chlorophenyl)-4,4-dimethylcyclohex-1-en-1-yl]methyl}piperazin-1-yl)-2-[(4-fluoro-1H-indol-5-yl)oxy]-N-({4-[(1-methylpiperidin-4-yl)amino]-3-nitrophenyl}sulfonyl)benzamide], for which the Ki under setting [1] stood at 0.72 nM.

Regarding `CC1(C)CCC(CN2CCN(c3ccc(C(=O)NS(=O)(=O)c4ccc(NCC5COCCO5)c([N+](=O)[O-])c4)c(Oc4cc5cc[nH]c5cc4Cl)c3)CC2)=C(c2ccc(Cl)cc2)C1` (stereo not shown) [Example 291, 2-[(6-chloro-1H-indol-5-yl)oxy]-4-(4-{[2-(4-chlorophenyl)-4,4-dimethylcyclohex-1-en-1-yl]methyl}piperazin-1-yl)-N-({4-[(1,4-dioxan-2-ylmethyl)amino]-3-nitrophenyl}sulfonyl)benzamide], under setting [1], the Ki was 0.273 nM. For `CC1(C)CCC(CN2CCN(c3ccc(C(=O)NS(=O)(=O)c4ccc(N[C@@H]5CCN(Cc6cscn6)C[C@@H]5O)c([N+](=O)[O-])c4)c(Oc4cc5cc[nH]c5cc4F)c3)CC2)=C(c2ccc(Cl)cc2)C1` [Example 249, 4-(4-{[2-(4-chlorophenyl)-4,4-dimethylcyclohex-1-en-1-yl]methyl}piperazin-1-yl)-2-[(6-fluoro-1H-indol-5-yl)oxy]-N-[(4-{[(3S,4R)-3-hydroxy-1-(1,3-thiazol-4-ylmethyl)piperidin-4-yl]amino}-3-nitrophenyl)sulfonyl]benzamide], the Ki under setting [1] is 0.168 nM. `C#Cc1cc(S(=O)(=O)NC(=O)c2ccc(N3CCN(CC4=C(c5ccc(Cl)cc5)CC(C)(C)CC4)CC3)cc2Oc2cc3cc[nH]c3cc2F)cnc1OCC1CCOCC1` [Example 322, 4-(4-{[2-(4-chlorophenyl)-4,4-dimethylcyclohex-1-en-1-yl]methyl}piperazin-1-yl)-N-{[5-ethynyl-6-(tetrahydro-2H-pyran-4-ylmethoxy)pyridin-3-yl]sulfonyl}-2-[(6-fluoro-1H-indol-5-yl)oxy]benzamide] came in with a Ki under setting [1] of 4.53 nM. The same measure, in the same setting: the same measure for `CC1(C)CCC(CN2CCN(c3ccc(C(=O)NS(=O)(=O)c4ccc(NC5CCN(CCc6ccccc6)CC5)c([N+](=O)[O-])c4)c(Oc4cccc(Cl)c4)c3)CC2)=C(c2ccc(Cl)cc2)C1` [Example 163, 2-(3-chlorophenoxy)-4-(4-{[2-(4-chlorophenyl)-4,4-dimethylcyclohex-1-en-1-yl]methyl}piperazin-1-yl)-N-[(3-nitro-4-{[1-(2-phenylethyl)piperidin-4-yl]amino}phenyl)sulfonyl]benzamide]: 0.686 nM; for `CC1(C)CCC(CN2CCN(c3ccc(C(=O)NS(=O)(=O)c4ccc(NCCCN5CCOCC5)c([N+](=O)[O-])c4)c(Oc4ccccc4F)c3)CC2)=C(c2ccc(Cl)cc2)C1` [Example 125, 4-(4-{[2-(4-chlorophenyl)-4,4-dimethylcyclohex-1-en-1-yl]methyl}piperazin-1-yl)-2-(2-fluorophenoxy)-N-({4-[(3-morpholin-4-ylpropyl)amino]-3-nitrophenyl}sulfonyl)benzamide]: 0.075 nM; for `CC1(C)CCC(CN2CCN(c3ccc(C(=O)NS(=O)(=O)c4ccc(NC5CCN(C6CCOCC6)CC5)c([N+](=O)[O-])c4)c(Nc4ccccc4Cl)c3)CC2)=C(c2ccc(Cl)cc2)C1` [Example 226, 2-[(2-chlorophenyl)amino]-4-(4-{[2-(4-chlorophenyl)-4,4-dimethylcyclohex-1-en-1-yl]methyl}piperazin-1-yl)-N-({3-nitro-4-[(1-tetrahydro-2H-pyran-4-ylpiperidin-4-yl)amino]phenyl}sulfonyl)benzamide]: 7.59 nM. `O=C(NS(=O)(=O)c1ccc(NCCCN2CCOCC2)c([N+](=O)[O-])c1)c1ccc(N2CCN(Cc3ccccc3-c3ccc(Cl)cc3)CC2)cc1Oc1ccc(-c2cccnc2)cc1` [Example 100, 4-(4-((4′-chloro-1,1′-biphenyl-2-yl)methyl)piperazin-1-yl)-N-((4-((3-morpholin-4-ylpropyl)amino)-3-nitrophenyl)sulfonyl)-2-(4-pyridin-3-ylphenoxy)benzamide] registered a Ki under setting [1] of 113 nM. As for `Cn1c(=O)[nH]c2cccc(Oc3cc(N4CCN(CC5=C(c6ccc(Cl)cc6)CC(C)(C)CC5)CC4)ccc3C(=O)NS(=O)(=O)c3ccc(NCC4CCOCC4)c([N+](=O)[O-])c3)c21` [Example 368, 4-(4-{[2-(4-chlorophenyl)-4,4-dimethylcyclohex-1-en-1-yl]methyl}piperazin-1-yl)-2-[(3-methyl-2-oxo-2,3-dihydro-1H-benzimidazol-4-yl)oxy]-N-({3-nitro-4-[(tetrahydro-2H-pyran-4-ylmethyl)amino]phenyl}sulfonyl)benzamide], the Ki under setting [1] is < 0.01 nM. As to `CC1(C)CCC(CN2CCN(c3ccc(C(=O)NS(=O)(=O)c4cnc(OCC5COCCO5)c(C#N)c4)c(Oc4cc5cc[nH]c5cc4F)c3)CC2)=C(c2ccc(Cl)cc2)C1` (stereo not shown) [Example 305, 4-(4-{[2-(4-chlorophenyl)-4,4-dimethylcyclohex-1-en-1-yl]methyl}piperazin-1-yl)-N-{[5-cyano-6-(1,4-dioxan-2-ylmethoxy)pyridin-3-yl]sulfonyl}-2-[(6-fluoro-1H-indol-5-yl)oxy]benzamide], under setting [1], the Ki was determined as 0.146 nM. On to `CC1(C)CCC(CN2CCN(c3ccc(C(=O)NS(=O)(=O)c4ccc(NC5CCN(C6CCOCC6)CC5)c([N+](=O)[O-])c4)c(Oc4ccnc(NC(=O)OC(C)(C)C)c4)c3)CC2)=C(c2ccc(Cl)cc2)C1` [Example 271, tert-butyl 4-(5-(4-{[2-(4-chlorophenyl)-4,4-dimethylcyclohex-1-en-1-yl]methyl}piperazin-1-yl)-2-{[({3-nitro-4-[(1-tetrahydro-2H-pyran-4-ylpiperidin-4-yl)amino]phenyl}sulfonyl)amino]carbonyl}phenoxy)pyridin-2-ylcarbamate], for which the Ki under setting [1] was determined as 1.91 nM.

The values are drawn from US8952157B2, “Apoptosis-inducing agents for the treatment of cancer and immune and autoimmune diseases” (AbbVie Inc., priority 2008, dated 2015).
